ChEMBL document CHEMBL1667745, “Synthesis and antibacterial evaluation of novel clarithromycin derivatives with C-4″ elongated arylalkyl groups against macrolide-resistant strains” (2011)
≈ marks a conversion by molar mass, not a printed value.

Columns and labels:
Type in all cases: functional
[1] = tested on: Streptococcus pneumoniae; assay: Antimicrobial activity against erythromycin-susceptible Streptococcus pneumoniae ATCC 49619 by broth microdilution method
[2] = tested on: Streptococcus pneumoniae; assay: Antimicrobial activity against erythromycin-resistant Streptococcus pneumoniae B1 expressing the erm gene by broth microdilution method
[3] = tested on: Streptococcus pneumoniae; assay: Antimicrobial activity against erythromycin-resistant Streptococcus pneumoniae A22072 expressing the mef gene by broth microdilution method
[4] = tested on: Streptococcus pneumoniae; assay: Antimicrobial activity against erythromycin-resistant Streptococcus pneumoniae AB11 expressing the erm and mef gene by broth microdilution method
[5] = tested on: Staphylococcus aureus; assay: Antimicrobial activity against erythromycin-susceptible Staphylococcus aureus ATCC 25923 by broth microdilution method
[6] = tested on: Staphylococcus aureus; assay: Antimicrobial activity against penicillin-susceptible Staphylococcus aureus P1 by broth microdilution method
[7] = tested on: Streptococcus pyogenes; assay: Antimicrobial activity against erythromycin-susceptible Streptococcus pyogenes S2 by broth microdilution method
[8] = tested on: Streptococcus pyogenes; assay: Antimicrobial activity against erythromycin-resistant Streptococcus pyogenes R2 by broth microdilution method

Row | SMILES | MIC [1] [µg/mL] | MIC [2] [µg/mL] | MIC [3] [µg/mL] | MIC [4] [µg/mL] | MIC [5] [µg/mL] | MIC [6] [µg/mL] | MIC [7] [µg/mL] | MIC [8] [µg/mL]
1 | CC[C@H]1OC(=O)[C@H](C)[C@@H](O[C@H]2C[C@@](C)(OC)[C@@H](OC(=O)NCCCC(=O)NCc3ccc(F)cc3)[C@H](C)O2)[C@H](C)[C@@H](O[C@@H]2O[C@H](C)C[C@H](N(C)C)[C@H]2O)[C@](C)(OC)C[C@@H](C)C(=O)[C@H](C)[C@@H](O)[C@]1(C)O | 0.03 (≈ 0.0305 µM) | 1 (≈ 1.02 µM) | 0.25 (≈ 0.254 µM) | 2 (≈ 2.03 µM) | 0.12 (≈ 0.122 µM) | 1 (≈ 1.02 µM) | 0.25 (≈ 0.254 µM) | 16 (≈ 16.3 µM)
2 | CCCCNC(=O)CCCNC(=O)O[C@H]1[C@H](C)O[C@@H](O[C@H]2[C@H](C)[C@@H](O[C@@H]3O[C@H](C)C[C@H](N(C)C)[C@H]3O)[C@](C)(OC)C[C@@H](C)C(=O)[C@H](C)[C@@H](O)[C@](C)(O)[C@@H](CC)OC(=O)[C@@H]2C)C[C@@]1(C)OC | 0.03 (≈ 0.0322 µM) | 128 (≈ 137 µM) | 8 (≈ 8.58 µM) | 128 (≈ 137 µM) | 0.25 (≈ 0.268 µM) | 8 (≈ 8.58 µM) | 0.5 (≈ 0.536 µM) | 16 (≈ 17.2 µM)
3 | CC[C@H]1OC(=O)[C@H](C)[C@@H](O[C@H]2C[C@@](C)(OC)[C@@H](O)[C@H](C)O2)[C@H](C)[C@@H](O[C@@H]2O[C@H](C)C[C@H](N(C)C)[C@H]2O)[C@](C)(OC)C[C@@H](C)C(=O)[C@H](C)[C@@H](O)[C@]1(C)O [CLARITHROMYCIN] | 0.03 (≈ 0.0401 µM) | 64 (≈ 85.6 µM) | 4 (≈ 5.35 µM) | 128 (≈ 171 µM) | 0.12 (≈ 0.16 µM) | 0.03 (≈ 0.0401 µM) | 0.03 (≈ 0.0401 µM) | 4 (≈ 5.35 µM)
4 | CC[C@H]1OC(=O)[C@H](C)[C@@H](O[C@H]2C[C@@](C)(OC)[C@@H](OC(=O)NCCCC(=O)NCc3ccccc3)[C@H](C)O2)[C@H](C)[C@@H](O[C@@H]2O[C@H](C)C[C@H](N(C)C)[C@H]2O)[C@](C)(OC)C[C@@H](C)C(=O)[C@H](C)[C@@H](O)[C@]1(C)O | 0.03 (≈ 0.031 µM) | 2 (≈ 2.07 µM) | 0.5 (≈ 0.517 µM) | 0.25 (≈ 0.259 µM) | 0.12 (≈ 0.124 µM) | 4 (≈ 4.14 µM) | 0.25 (≈ 0.259 µM) | 64 (≈ 66.2 µM)
5 | CCCCNC(=O)CCCCCNC(=O)O[C@H]1[C@H](C)O[C@@H](O[C@H]2[C@H](C)[C@@H](O[C@@H]3O[C@H](C)C[C@H](N(C)C)[C@H]3O)[C@](C)(OC)C[C@@H](C)C(=O)[C@H](C)[C@@H](O)[C@](C)(O)[C@@H](CC)OC(=O)[C@@H]2C)C[C@@]1(C)OC | 0.06 (≈ 0.0625 µM) | 128 (≈ 133 µM) | 1 (≈ 1.04 µM) | 128 (≈ 133 µM) | 0.25 (≈ 0.26 µM) | 8 (≈ 8.33 µM) | 0.25 (≈ 0.26 µM) | 8 (≈ 8.33 µM)
6 | CC[C@H]1OC(=O)[C@H](C)[C@@H](O[C@H]2C[C@@](C)(OC)[C@@H](OC(=O)NCCCC(=O)NC(C)C)[C@H](C)O2)[C@H](C)[C@@H](O[C@@H]2O[C@H](C)C[C@H](N(C)C)[C@H]2O)[C@](C)(OC)C[C@@H](C)C(=O)[C@H](C)[C@@H](O)[C@]1(C)O | 0.03 (≈ 0.0327 µM) | 128 (≈ 139 µM) | 8 (≈ 8.71 µM) | 128 (≈ 139 µM) | 0.25 (≈ 0.272 µM) | 8 (≈ 8.71 µM) | 0.5 (≈ 0.545 µM) | 16 (≈ 17.4 µM)
7 | CC[C@H]1OC(=O)[C@H](C)[C@@H](O[C@H]2C[C@@](C)(OC)[C@@H](OC(=O)NCCCCCC(=O)NC(C)C)[C@H](C)O2)[C@H](C)[C@@H](O[C@@H]2O[C@H](C)C[C@H](N(C)C)[C@H]2O)[C@](C)(OC)C[C@@H](C)C(=O)[C@H](C)[C@@H](O)[C@]1(C)O | 0.06 (≈ 0.0634 µM) | 128 (≈ 135 µM) | 8 (≈ 8.45 µM) | 128 (≈ 135 µM) | 0.25 (≈ 0.264 µM) | 1 (≈ 1.06 µM) | 0.12 (≈ 0.127 µM) | 32 (≈ 33.8 µM)
8 | CC[C@H]1OC(=O)[C@H](C)[C@@H](O[C@H]2C[C@@](C)(OC)[C@@H](OC(=O)NCCc3ccc4c(c3)OCO4)[C@H](C)O2)[C@H](C)[C@@H](O[C@@H]2O[C@H](C)C[C@H](N(C)C)[C@H]2O)[C@](C)(OC)C[C@@H](C)C(=O)[C@H](C)[C@@H](O)[C@]1(C)O | 0.06 (≈ 0.0639 µM) | 32 (≈ 34.1 µM) | 0.25 (≈ 0.266 µM) | 64 (≈ 68.1 µM) | 0.25 (≈ 0.266 µM) | 0.5 (≈ 0.532 µM) | 0.5 (≈ 0.532 µM) | 0.5 (≈ 0.532 µM)
